Results reported in ChEMBL document CHEMBL1139578, “(1H-imidazo[4,5-c]pyridin-2-yl)-1,2,5-oxadiazol-3-ylamine derivatives: further optimisation as highly potent and selective MSK-1-inhibitors” (Bioorg Med Chem Lett, 2005).
Each block holds one compound with its values, some of them ahead of it.

Columns and labels:
[1] = molecular target: T1, Ribosomal protein S6 kinase alpha-5 (Homo sapiens, UniProt O75582); assay: Inhibitory concentration against MSK-1
Target sequence in this assay (O75582 whole entry): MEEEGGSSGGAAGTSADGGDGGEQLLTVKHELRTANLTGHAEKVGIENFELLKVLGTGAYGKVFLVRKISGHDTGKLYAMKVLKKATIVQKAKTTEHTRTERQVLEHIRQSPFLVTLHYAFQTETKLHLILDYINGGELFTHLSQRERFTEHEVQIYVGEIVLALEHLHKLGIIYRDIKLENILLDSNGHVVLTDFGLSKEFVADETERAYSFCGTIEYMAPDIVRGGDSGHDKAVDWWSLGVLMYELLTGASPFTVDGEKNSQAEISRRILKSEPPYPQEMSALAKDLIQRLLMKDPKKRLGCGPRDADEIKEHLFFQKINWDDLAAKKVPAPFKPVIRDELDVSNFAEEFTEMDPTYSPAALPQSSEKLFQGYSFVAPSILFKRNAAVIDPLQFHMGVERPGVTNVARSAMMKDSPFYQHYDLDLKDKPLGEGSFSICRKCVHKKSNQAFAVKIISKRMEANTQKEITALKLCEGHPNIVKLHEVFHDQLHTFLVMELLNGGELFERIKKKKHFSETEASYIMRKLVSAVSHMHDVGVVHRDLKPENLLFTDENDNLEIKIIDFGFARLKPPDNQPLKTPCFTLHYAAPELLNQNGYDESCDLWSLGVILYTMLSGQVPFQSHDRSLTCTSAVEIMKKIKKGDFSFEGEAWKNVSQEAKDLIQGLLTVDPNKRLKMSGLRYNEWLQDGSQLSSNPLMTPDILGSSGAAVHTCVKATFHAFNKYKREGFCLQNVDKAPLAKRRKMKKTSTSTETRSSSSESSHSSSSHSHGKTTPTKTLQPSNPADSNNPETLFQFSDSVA

[2] = molecular target: T2, Cyclin-dependent kinase 2 (Homo sapiens, UniProt P24941); assay: Inhibitory concentration against selected kinase CDK2
[3] = molecular target: T3, Ribosomal protein S6 kinase beta-1 (Homo sapiens, UniProt P23443); assay: Inhibitory concentration against selected kinase p70S6K
Target sequence in this assay (P23443 whole entry): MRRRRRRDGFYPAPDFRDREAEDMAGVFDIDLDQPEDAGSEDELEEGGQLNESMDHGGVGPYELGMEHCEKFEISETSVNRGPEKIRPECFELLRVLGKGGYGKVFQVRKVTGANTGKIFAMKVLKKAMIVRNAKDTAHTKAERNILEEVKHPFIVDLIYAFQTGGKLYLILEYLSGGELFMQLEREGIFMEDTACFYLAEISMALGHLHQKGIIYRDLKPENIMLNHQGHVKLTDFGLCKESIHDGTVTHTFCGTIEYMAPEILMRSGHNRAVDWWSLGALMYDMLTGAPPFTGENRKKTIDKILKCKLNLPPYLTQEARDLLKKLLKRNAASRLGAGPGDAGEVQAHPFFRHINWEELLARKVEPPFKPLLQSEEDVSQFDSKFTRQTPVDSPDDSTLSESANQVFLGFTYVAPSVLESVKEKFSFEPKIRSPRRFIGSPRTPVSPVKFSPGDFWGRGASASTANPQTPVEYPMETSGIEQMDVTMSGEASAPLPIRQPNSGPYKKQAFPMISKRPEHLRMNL

[4] = molecular target: T4, Dual specificity tyrosine-phosphorylation-regulated kinase 1A (Homo sapiens, UniProt Q13627); assay: Inhibitory concentration against selected kinase DYRK1-alpha
[5] = molecular target: T5, Rho-associated protein kinase 1 (Homo sapiens, UniProt Q13464); assay: Inhibitory concentration against selected kinase ROCK1
Target sequence in this assay (Q13464 whole entry): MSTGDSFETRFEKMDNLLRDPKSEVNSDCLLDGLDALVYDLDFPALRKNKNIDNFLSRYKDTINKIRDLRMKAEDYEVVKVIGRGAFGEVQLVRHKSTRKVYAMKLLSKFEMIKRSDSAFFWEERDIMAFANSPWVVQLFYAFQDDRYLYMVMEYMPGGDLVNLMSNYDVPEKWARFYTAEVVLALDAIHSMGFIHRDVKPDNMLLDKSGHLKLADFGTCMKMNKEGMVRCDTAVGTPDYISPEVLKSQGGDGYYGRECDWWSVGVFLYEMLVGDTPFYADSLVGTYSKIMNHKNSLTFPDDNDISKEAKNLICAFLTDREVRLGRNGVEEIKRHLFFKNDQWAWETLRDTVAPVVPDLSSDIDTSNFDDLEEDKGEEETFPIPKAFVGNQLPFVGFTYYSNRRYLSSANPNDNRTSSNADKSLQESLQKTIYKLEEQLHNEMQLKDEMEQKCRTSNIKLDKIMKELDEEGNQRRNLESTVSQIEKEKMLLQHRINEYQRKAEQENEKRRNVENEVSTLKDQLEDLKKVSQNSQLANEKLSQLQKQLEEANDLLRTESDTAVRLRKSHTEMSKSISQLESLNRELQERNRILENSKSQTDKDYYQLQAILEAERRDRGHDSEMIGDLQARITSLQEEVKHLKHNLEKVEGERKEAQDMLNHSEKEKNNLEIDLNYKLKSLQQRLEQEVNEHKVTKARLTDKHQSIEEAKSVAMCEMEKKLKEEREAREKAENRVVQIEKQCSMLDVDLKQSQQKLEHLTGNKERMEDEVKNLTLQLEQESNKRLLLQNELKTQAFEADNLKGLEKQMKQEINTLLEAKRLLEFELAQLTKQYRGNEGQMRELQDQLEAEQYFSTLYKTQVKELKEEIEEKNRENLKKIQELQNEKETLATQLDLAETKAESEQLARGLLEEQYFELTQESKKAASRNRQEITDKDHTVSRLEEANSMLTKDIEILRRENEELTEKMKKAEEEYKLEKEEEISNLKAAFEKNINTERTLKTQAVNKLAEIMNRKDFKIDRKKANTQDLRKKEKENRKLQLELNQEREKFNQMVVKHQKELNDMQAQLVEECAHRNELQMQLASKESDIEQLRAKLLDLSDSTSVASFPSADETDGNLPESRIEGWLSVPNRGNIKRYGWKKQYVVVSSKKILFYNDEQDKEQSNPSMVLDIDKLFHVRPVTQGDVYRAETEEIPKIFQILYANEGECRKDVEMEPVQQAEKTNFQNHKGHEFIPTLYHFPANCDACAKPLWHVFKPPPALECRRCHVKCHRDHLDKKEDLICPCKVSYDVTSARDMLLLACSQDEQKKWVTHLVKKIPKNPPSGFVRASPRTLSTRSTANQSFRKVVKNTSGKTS

[6] = molecular target: cAMP-dependent protein kinase (PKA) (Homo sapiens) (UniProt P22694+P17612+P22612); assay: Percent inhibition against PKA at 10 uM using 100 uM ATP; assay type: protein assay
[7] = molecular target: 5'-AMP-activated protein kinase catalytic subunit alpha-1 (Homo sapiens) (UniProt Q13131); assay: Percent inhibition against AMPK at 10 uM using 100 uM ATP
[8] = molecular target: Serine/threonine-protein kinase Sgk1 (Homo sapiens) (UniProt O00141); assay: Percent inhibition against SGK at 10 uM using 100 uM ATP
[9] = molecular target: T2, Cyclin-dependent kinase 2; assay: Percent inhibition against CDK2 at 10 uM using 100 uM ATP
[10] = molecular target: Dual specificity mitogen-activated protein kinase kinase 1 (Homo sapiens) (UniProt Q02750); assay: Percent inhibition against MKK1 at 10 uM using 100 uM ATP
[11] = molecular target: Protein kinase C alpha type (Homo sapiens) (UniProt P17252); assay: Percent inhibition against PKCalpha at 10 uM using 100 uM ATP
[12] = molecular target: Mitogen-activated protein kinase 14 (Homo sapiens) (UniProt Q16539); assay: Percent inhibition against p38-alpha at 10 uM using 100 uM ATP
[13] = molecular target: Serine/threonine-protein kinase Chk1 (Homo sapiens) (UniProt O14757); assay: Percent inhibition against Chk1 at 10 uM using 100 uM ATP
[14] = molecular target: T3, Ribosomal protein S6 kinase beta-1; conditions: 10 uM
Target sequence in this assay (P23443 whole entry, looked up): as the sequence (P23443 whole entry) above
Description: Percent inhibition against p70S6K at 10 uM using 100 uM ATP

[15] = molecular target: T1, Ribosomal protein S6 kinase alpha-5; assay: Percent inhibition against MSK1 at 10 uM using 100 uM ATP
Target sequence in this assay (O75582 whole entry, looked up): as the sequence (O75582 whole entry) above

[16] = molecular target: Mitogen-activated protein kinase 11 (Homo sapiens) (UniProt Q15759); assay: Percent inhibition against p38b at 10 uM using 100 uM ATP
[17] = molecular target: T5, Rho-associated protein kinase 1; conditions: 10 uM
Description: Percent inhibition against ROCK1 at 10 uM using 100 uM ATP

[18] = molecular target: Mitogen-activated protein kinase 1 (Homo sapiens) (UniProt P28482); assay: Percent inhibition against MAPK2 at 10 uM using 100 uM ATP
[19] = molecular target: Mitogen-activated protein kinase 13 (Homo sapiens) (UniProt O15264); assay: Percent inhibition against p38d at 10 uM using 100 uM ATP
[20] = molecular target: T4, Dual specificity tyrosine-phosphorylation-regulated kinase 1A; assay: Percent inhibition against DYRK1a at 10 uM using 100 uM ATP
[21] = molecular target: Ribosomal protein S6 kinase alpha-1 (Homo sapiens) (UniProt Q15418); assay: Percent inhibition against MAPKAP-K1a at 10 uM using 100 uM ATP
[22] = molecular target: Mitogen-activated protein kinase 8 (Homo sapiens) (UniProt P45983); assay: Percent inhibition against JNK1 at 10 uM using 100 uM ATP
[23] = molecular target: 3-phosphoinositide-dependent protein kinase 1 (Homo sapiens) (UniProt O15530); assay: Percent inhibition against PDK1 at 10 uM using 100 uM ATP
[24] = molecular target: Casein kinase II (Homo sapiens) (UniProt P67870+P68400+P19784); assay: Percent inhibition against CK2 at 10 uM using 100 uM ATP; assay type: protein-complex assay
[25] = molecular target: MAP kinase-activated protein kinase 2 (Homo sapiens) (UniProt P49137); assay: Percent inhibition against MAPKAP-K2 at 10 uM using 100 uM ATP
[26] = molecular target: Glycogen synthase kinase-3 beta (Homo sapiens) (UniProt P49841); assay: Percent inhibition against GSK3-beta at 10 uM using 100 uM ATP

Mitogen-activated protein kinase 13 (Homo sapiens), sequence (O15264 whole entry): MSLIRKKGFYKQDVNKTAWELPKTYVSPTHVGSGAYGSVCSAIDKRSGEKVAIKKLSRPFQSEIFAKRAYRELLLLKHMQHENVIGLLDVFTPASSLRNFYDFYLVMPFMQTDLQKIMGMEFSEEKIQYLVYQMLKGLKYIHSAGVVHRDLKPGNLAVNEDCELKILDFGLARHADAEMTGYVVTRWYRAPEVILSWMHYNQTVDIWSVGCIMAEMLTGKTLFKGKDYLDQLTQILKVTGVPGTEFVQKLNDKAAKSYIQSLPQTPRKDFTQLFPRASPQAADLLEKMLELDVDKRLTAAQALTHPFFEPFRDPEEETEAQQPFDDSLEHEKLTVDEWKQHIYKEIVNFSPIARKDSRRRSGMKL
5'-AMP-activated protein kinase catalytic subunit alpha-1 (Homo sapiens), sequence (Q13131 whole entry, looked up): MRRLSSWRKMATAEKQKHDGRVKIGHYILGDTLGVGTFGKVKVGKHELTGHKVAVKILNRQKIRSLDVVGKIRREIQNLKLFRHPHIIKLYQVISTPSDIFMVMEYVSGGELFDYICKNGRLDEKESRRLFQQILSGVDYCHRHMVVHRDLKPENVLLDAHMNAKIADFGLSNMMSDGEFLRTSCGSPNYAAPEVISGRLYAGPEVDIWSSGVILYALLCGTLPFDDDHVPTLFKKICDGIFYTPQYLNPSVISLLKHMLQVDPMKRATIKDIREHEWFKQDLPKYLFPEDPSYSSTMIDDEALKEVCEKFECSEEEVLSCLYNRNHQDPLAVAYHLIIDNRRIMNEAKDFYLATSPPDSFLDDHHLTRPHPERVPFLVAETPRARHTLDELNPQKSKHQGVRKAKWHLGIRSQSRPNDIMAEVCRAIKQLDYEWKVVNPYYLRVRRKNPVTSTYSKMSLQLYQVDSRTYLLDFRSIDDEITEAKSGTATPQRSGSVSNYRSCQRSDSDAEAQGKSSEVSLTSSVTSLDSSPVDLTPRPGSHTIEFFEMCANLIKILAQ
Serine/threonine-protein kinase Sgk1 (Homo sapiens), sequence (O00141 whole entry): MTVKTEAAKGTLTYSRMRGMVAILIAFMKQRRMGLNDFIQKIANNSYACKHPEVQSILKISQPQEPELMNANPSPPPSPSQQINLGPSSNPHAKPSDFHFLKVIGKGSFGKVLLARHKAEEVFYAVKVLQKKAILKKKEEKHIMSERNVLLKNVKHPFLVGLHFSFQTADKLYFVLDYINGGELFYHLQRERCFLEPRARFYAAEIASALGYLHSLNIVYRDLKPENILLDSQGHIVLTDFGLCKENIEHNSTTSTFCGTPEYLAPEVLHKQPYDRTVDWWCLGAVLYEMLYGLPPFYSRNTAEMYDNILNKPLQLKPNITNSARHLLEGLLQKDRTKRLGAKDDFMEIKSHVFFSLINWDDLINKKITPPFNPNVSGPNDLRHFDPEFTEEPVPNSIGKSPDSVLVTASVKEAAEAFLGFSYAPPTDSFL
3-phosphoinositide-dependent protein kinase 1 (Homo sapiens), sequence (O15530 whole entry, looked up): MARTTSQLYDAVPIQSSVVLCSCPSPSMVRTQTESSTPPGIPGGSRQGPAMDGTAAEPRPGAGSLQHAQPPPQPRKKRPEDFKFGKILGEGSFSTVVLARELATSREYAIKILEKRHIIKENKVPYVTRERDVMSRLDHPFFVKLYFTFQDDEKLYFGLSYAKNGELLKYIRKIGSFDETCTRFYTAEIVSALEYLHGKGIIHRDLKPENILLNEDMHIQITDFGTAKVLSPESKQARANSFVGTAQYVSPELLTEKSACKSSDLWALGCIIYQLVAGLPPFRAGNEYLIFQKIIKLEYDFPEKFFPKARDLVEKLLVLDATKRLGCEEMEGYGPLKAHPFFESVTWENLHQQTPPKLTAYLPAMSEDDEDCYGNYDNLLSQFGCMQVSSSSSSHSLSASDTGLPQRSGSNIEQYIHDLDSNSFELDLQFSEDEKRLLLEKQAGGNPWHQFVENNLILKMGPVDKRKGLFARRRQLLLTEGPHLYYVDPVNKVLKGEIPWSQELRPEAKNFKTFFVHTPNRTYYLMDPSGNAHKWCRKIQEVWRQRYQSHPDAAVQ
Mitogen-activated protein kinase 1 (Homo sapiens), sequence (P28482 whole entry): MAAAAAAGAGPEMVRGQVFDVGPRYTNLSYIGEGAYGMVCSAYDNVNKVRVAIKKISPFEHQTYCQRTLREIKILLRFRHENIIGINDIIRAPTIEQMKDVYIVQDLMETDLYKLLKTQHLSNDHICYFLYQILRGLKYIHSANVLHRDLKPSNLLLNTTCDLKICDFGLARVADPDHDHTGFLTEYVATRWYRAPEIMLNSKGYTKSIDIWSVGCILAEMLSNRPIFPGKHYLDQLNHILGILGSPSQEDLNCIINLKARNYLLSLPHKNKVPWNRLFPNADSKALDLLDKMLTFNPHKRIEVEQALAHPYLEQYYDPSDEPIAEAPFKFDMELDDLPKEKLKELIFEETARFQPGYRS

Compound: Nc1nonc1-c1nc2cnccc2n1C1CCNCC1
- IC50 [1]: 17 nM

Compound: CCn1c(-c2nonc2N)nc2cncc(CNC3CCNCC3)c21
- IC50 [2]: > 10000 nM
- IC50 [1]: 0.5 nM
- IC50 [3]: 270 nM
- IC50 [4]: 4900 nM
- IC50 [5]: 100 nM

Compound: CCc1nccc2c1nc(-c1nonc1N)n2CC
- IC50 [1]: 229 nM

Compound: CN(C)CCCn1c(-c2nonc2N)nc2cnccc21
- IC50 [1]: 617 nM

Compound: CCOc1nccc2c1nc(-c1nonc1N)n2CC
- IC50 [1]: 174 nM

Compound: CCn1c(-c2nonc2N)nc2c(-c3ccccc3)nccc21
- IC50 [1]: 813 nM

Compound: CCn1c(-c2nonc2N)nc2c(OC)nccc21
- IC50 [1]: 209 nM

Compound: NCCCn1c(-c2nonc2N)nc2cnccc21
- IC50 [1]: 22 nM

Compound: CCn1c(-c2nonc2N)nc2c(C)nccc21
- IC50 [1]: 8 nM

Compound: NCCCCn1c(-c2nonc2N)nc2cnccc21
- IC50 [1]: 13 nM

Compound: CCn1c(-c2nonc2N)nc2c(N3CCCC3)nccc21
- IC50 [1]: 2240 nM

Compound: CCn1c(-c2nonc2N)nc2c(Oc3ccccc3)nccc21
- IC50 [1]: 10000 nM

Further compounds by falling IC50 [1], results first:

- IC50 [1]: 7 nM
Compound: CCn1c(-c2nonc2N)nc2cncc(CN3CCCCC3)c21

- IC50 [1]: 6 nM
Compound: Nc1nonc1-c1nc2cnccc2n1-c1ccccc1

- IC50 [1]: 4 nM
Compound: CCn1c(-c2nonc2N)nc2c(Cl)nccc21

- IC50 [1]: 4 nM
Compound: NCc1ccc(-n2c(-c3nonc3N)nc3cnccc32)cc1

- IC50 [1]: 3 nM
Compound: Nc1nonc1-c1nc2cnccc2n1C1CCCCC1

- IC50 [1]: 3 nM
Compound: CCn1c(-c2nonc2N)nc2cncc(CN3CCC(N)CC3)c21

- inhibition [6]: 75%
- inhibition [7]: 59%
- inhibition [8]: 67%
- inhibition [9]: 84%
- inhibition [10]: 17%
- IC50 [2]: 169 nM
- inhibition [11]: 56%
- inhibition [12]: -7%
- IC50 [1]: 3 nM
- IC50 [3]: 70 nM
- inhibition [13]: -6%
- inhibition [14]: 95%
- IC50 [4]: 110 nM
- inhibition [15]: 96%
- inhibition [16]: 18%
- inhibition [17]: 90%
- IC50 [5]: 13 nM
- inhibition [18]: 41%
- inhibition [19]: 6%
- inhibition [20]: 94%
- inhibition [21]: 97%
- inhibition [22]: 13%
- inhibition [23]: 32%
- inhibition [24]: 15%
- inhibition [25]: 12%
- inhibition [26]: 90%
Compound: CCn1c(-c2nonc2N)nc2cnccc21

- IC50 [1]: 2.5 nM
Compound: NCc1cccc(-n2c(-c3nonc3N)nc3cnccc32)c1

- IC50 [1]: 2 nM
Compound: Nc1nonc1-c1nc2cnccc2n1C1CCCNC1 (racemic)

- IC50 [1]: 1.5 nM
Compound: Nc1nonc1-c1nc2cnccc2n1C1CC1

- IC50 [1]: 1.4 nM
Compound: CCn1c(-c2nonc2N)nc2cncc(CN3CCNCC3)c21
